Experimental data from ChEMBL document CHEMBL4837206, “Synthesis and biological evaluation of novel isoxazole-piperazine hybrids as potential anti-cancer agents with inhibitory effect on liver cancer stem cells” (Eur J Med Chem, 2021).
The source made the active and inactive calls. No cut-off for these calls is given here.

Legend:
Huh-7 [1] = assay: Activation of p53 harboring C220T mutant in human Huh-7 cells at 5 uM measured after 72 hrs by Western blot analysis; type: cell-based
Huh-7 [2] = assay: Induction of apoptosis in human Huh-7 cells assessed as chromatin condensation measured after 48 hrs by Hoechst33258 staining based inverted fluorescent microscopic method; type: functional, cell-based
HepG2 [3] = assay: Cell cycle arrest in human HepG2 cells assessed as increase in accumulation of cells at G0/G1 phase at 5 uM measured after 48 hrs by propidium iodide staining based flow cytometric analysis; type: functional
[4] = molecular target: T1, Serine/threonine-protein kinase AKT (Homo sapiens) (UniProt P31751+Q9Y243+P31749); assay: Inhibition of Akt phosphorylation at Ser473 residue in human Huh-7 cells at 5 uM measured after 72 hrs by Western blot analysis; type: cell-based
T1 sequence (P31749 whole entry, looked up): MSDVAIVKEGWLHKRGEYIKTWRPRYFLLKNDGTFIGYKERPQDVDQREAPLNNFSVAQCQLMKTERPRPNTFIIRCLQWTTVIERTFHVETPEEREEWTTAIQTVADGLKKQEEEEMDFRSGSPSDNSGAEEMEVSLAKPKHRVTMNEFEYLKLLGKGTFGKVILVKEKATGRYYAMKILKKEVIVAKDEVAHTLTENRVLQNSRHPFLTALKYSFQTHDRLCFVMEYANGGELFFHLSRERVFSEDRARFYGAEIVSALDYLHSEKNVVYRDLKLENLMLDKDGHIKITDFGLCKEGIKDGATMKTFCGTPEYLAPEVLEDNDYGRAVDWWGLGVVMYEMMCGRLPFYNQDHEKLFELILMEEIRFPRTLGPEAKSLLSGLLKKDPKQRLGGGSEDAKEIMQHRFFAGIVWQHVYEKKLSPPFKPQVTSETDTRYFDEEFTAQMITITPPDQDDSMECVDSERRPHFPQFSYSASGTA
T1 sequence (P31751 whole entry, looked up): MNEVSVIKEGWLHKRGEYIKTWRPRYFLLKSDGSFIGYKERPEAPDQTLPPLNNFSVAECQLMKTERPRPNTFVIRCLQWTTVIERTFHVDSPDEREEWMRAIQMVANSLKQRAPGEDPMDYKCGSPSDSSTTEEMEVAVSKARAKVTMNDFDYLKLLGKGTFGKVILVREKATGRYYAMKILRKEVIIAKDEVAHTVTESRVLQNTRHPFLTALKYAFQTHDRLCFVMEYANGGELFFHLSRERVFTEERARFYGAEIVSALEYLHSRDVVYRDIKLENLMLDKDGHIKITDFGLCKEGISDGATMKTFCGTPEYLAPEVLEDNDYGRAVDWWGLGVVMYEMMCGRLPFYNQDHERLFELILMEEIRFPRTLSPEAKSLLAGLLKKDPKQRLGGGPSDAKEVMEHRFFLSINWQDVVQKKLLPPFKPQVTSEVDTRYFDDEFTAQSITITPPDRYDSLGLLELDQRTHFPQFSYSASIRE
T1 sequence (Q9Y243 whole entry, looked up): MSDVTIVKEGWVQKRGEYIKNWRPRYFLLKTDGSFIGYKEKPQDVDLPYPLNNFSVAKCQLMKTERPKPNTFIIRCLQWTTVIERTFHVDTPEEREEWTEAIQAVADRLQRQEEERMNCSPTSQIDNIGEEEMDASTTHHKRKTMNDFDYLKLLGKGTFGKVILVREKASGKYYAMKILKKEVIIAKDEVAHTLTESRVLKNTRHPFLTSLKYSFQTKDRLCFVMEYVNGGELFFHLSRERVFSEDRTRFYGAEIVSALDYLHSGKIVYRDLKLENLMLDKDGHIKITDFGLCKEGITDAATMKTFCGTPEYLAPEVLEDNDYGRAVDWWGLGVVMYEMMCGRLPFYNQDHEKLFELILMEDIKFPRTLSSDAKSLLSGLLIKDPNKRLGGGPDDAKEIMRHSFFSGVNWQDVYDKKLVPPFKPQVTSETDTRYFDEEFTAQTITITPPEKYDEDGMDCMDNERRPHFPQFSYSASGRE

SNU-475 [5] = assay: Induction of apoptosis in human SNU-475 cells at 5 uM measured after 72 hrs by Annexin V-FITC/propidium iodide staining based flow cytometric analysis; type: functional, cell-based
Mahlavu [6] = assay: Activation of p53 harboring G249T mutant in human Mahlavu cells assessed as upregulation of p53 acetylation at Lys382 residue at 5 uM incubated for 72 hrs by western blot analysis; type: cell-based; conditions: filed as activator
Huh-7 [7] = assay: Inhibition of cell stemness in human Huh-7 cells assessed as reduction in size of tumor spheres at 10 uM incubated for 72 hrs followed by incubation in sphere formation medium for 7 days by microscopic analysis; type: functional, cell-based; conditions: time 10.0 day
[8] = molecular target: T2, Mitogen-activated protein kinase; ERK1/ERK2 (Homo sapiens) (UniProt P27361+P28482); assay: Downregulation of ERK1/2 phosphorylation at T202/Y204 residue in human SNU-475 cells at 5 uM measured after 72 hrs by Western blot analysis; type: cell-based
T2 sequence (P27361 whole entry, looked up): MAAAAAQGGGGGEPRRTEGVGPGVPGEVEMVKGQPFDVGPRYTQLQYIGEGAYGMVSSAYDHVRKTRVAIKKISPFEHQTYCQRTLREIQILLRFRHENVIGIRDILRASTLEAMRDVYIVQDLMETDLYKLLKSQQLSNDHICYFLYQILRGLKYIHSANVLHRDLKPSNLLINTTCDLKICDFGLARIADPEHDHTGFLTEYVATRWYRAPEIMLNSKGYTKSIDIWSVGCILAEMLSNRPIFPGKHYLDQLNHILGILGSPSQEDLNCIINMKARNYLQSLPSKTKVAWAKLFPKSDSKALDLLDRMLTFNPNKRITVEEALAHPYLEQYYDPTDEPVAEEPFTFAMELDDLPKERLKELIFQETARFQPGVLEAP
T2 sequence (P28482 whole entry, looked up): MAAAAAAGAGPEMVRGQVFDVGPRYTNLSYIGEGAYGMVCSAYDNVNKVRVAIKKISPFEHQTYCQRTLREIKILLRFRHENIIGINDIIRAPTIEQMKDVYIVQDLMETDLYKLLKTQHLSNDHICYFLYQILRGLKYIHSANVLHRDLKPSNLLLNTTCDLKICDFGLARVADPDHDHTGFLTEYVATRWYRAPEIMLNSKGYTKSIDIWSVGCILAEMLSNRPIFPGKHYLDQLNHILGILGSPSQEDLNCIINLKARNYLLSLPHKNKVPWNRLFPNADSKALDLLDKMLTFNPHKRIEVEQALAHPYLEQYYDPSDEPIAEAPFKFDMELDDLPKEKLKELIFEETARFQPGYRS

SNU-475 [9] = assay: Induction of apoptosis in human SNU-475 cells assessed as chromatin condensation measured after 48 hrs by Hoechst33258 staining based inverted fluorescent microscopic method; type: functional, cell-based
[10] = molecular target: T2, Mitogen-activated protein kinase; ERK1/ERK2 (Homo sapiens); assay: Inhibition of ERK1/2 phosphorylation at T202/Y204 residue in human Mahlavu cells at 5 uM measured after 72 hrs by Western blot analysis; type: cell-based
HepG2 [11] = assay: Antiproliferative activity against human HepG2 cells assessed as reduction in cell viability measured after 90 hrs by RT-CES analysis; type: functional, cell-based
SNU-475 [12] = assay: Cell cycle arrest in human SNU-475 cells assessed as increase in accumulation of cells at G2/M phase at 5 uM measured after 48 hrs by propidium iodide staining based flow cytometric analysis; type: functional
Huh-7 [13] = assay: Inhibition of cell stemness in human Huh-7 cells assessed as decrease in NANOG level at 10 uM measured after 72 hrs by flow cytometry analysis; type: functional, cell-based
Huh-7 [14] = assay: Inhibition of cell stemness in human Huh-7 cells assessed as CD133+/EpCAM+ expression at 10 uM measured after 72 hrs by flow cytometry analysis (reference value: 29.92%); type: functional; design: scale not given: the % may be the effect or the level left
[15] = molecular target: T1, Serine/threonine-protein kinase AKT (Homo sapiens); assay: Inhibition of Akt phosphorylation at Ser473 residue in human Mahlavu cells at 5 uM measured after 72 hrs by Western blot analysis; type: cell-based
Huh-7 [16] = assay: Antiproliferative activity against human Huh-7 cells assessed as reduction in cell viability measured after 72 hrs by SRB assay; type: functional, cell-based; conditions: Huh-7, 72 h
HepG2 [17] = assay: Induction of apoptosis in human HepG2 cells assessed as chromatin condensation measured after 48 hrs by Hoechst33258 staining based inverted fluorescent microscopic method; type: functional, cell-based
HepG2 [18] = assay: Induction of apoptosis in human HepG2 cells assessed as nuclear fragmentation measured after 48 hrs by Hoechst33258 staining based inverted fluorescent microscopic method; type: functional, cell-based
MCF7 = assay: Antiproliferative activity against human MCF7 cells assessed as reduction in cell viability measured after 72 hrs by SRB assay; type: functional, cell-based; conditions: MCF7, 72 h
[19] = molecular target: T2, Mitogen-activated protein kinase; ERK1/ERK2 (Homo sapiens); assay: Downregulation of ERK1/2 phosphorylation at T202/Y204 residue in human Huh-7 cells at 5 uM measured after 72 hrs by Western blot analysis; type: cell-based
Huh-7 [20] = assay: Induction of apoptosis in human Huh-7 cells at 5 uM measured after 72 hrs by Annexin V-FITC/propidium iodide staining based flow cytometric analysis; type: functional, cell-based
Huh-7 [21] = assay: Antiproliferative activity against human Huh-7 cells assessed as reduction in cell viability measured for 180 hrs by RT-CES analysis; type: functional, cell-based; conditions: dose 2.5-10 µM
[22] = molecular target: Cellular tumor antigen p53 (Homo sapiens) (UniProt P04637); assay: Activation of p53 in human HepG2 cells at 5 uM measured after 72 hrs by Western blot analysis; type: cell-based
Cellular tumor antigen p53 (Homo sapiens), sequence (P04637 whole entry, looked up): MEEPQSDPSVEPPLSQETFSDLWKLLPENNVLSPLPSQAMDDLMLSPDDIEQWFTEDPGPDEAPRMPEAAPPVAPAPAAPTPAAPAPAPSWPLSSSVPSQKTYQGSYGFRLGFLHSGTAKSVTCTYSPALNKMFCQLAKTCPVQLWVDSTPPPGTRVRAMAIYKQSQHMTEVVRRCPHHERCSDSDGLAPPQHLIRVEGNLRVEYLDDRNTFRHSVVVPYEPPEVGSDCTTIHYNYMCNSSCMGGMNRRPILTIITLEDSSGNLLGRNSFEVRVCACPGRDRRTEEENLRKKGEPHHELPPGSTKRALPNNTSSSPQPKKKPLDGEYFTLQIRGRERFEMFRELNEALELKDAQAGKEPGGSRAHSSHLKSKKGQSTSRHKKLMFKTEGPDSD

[23] = Inhibition of PI3K/Akt/mTOR signaling in human Mahlavu cells assessed as downregulation of c-Myc protein expression at 5 uM measured after 72 hrs by Western blot analysis; type: cell-based
Huh-7 [24] = assay: Induction of apoptosis in human Huh-7 cells assessed as apoptotic body formation measured after 48 hrs by Hoechst33258 staining based inverted fluorescent microscopic method; type: functional, cell-based
Mahlavu [25] = assay: Induction of apoptosis in human Mahlavu cells at 5 uM measured after 72 hrs by Annexin V-FITC/propidium iodide staining based flow cytometric analysis; type: functional, cell-based
SNU-475 [26] = assay: Antiproliferative activity against human SNU-475 cells assessed as reduction in cell viability measured after 40 to 130 hrs by RT-CES analysis; type: functional, cell-based; conditions: time 40-130 hrs
HepG2 [27] = assay: Induction of apoptosis in human HepG2 cells at 5 uM measured after 72 hrs by Annexin V-FITC/propidium iodide staining based flow cytometric analysis; type: functional, cell-based
Mahlavu [28] = assay: Antiproliferative activity against human Mahlavu cells assessed as reduction in cell viability measured for 180 hrs by RT-CES analysis; type: functional, cell-based; conditions: dose 2.5-10 µM
Huh-7 [29] = assay: Inhibition of cell stemness in human Huh-7 cells assessed as reduction in tumor spheres count at 10 uM incubated for 72 hrs followed by incubation in sphere formation medium for 14 days by microscopic analysis; type: functional, cell-based; conditions: time 17.0 day
SNU-475 [30] = assay: Induction of apoptosis in human SNU-475 cells assessed as nuclear fragmentation measured after 48 hrs by Hoechst33258 staining based inverted fluorescent microscopic method; type: functional, cell-based
SNU-475 [31] = assay: Activation of p53 harboring A239G/T275C/A288G mutant in human SNU-475 cells assessed as upregulation of p21 protein expression at 5 uM incubated for 72 hrs by western blot analysis; type: cell-based; conditions: filed as activator
Huh-7 [32] = assay: Inhibition of cell stemness in human Huh-7 cells assessed as decrease in OCT4 level at 10 uM measured after 72 hrs by flow cytometry analysis; type: functional, cell-based
Mahlavu [33] = assay: Antiproliferative activity against human Mahlavu cells assessed as reduction in cell viability measured after 72 hrs by SRB assay; type: functional, cell-based
Mahlavu [34] = assay: Induction of apoptosis in human Mahlavu cells assessed as chromatin condensation measured after 48 hrs by Hoechst33258 staining based inverted fluorescent microscopic method; type: functional, cell-based
SNU-475 [35] = assay: Antiproliferative activity against human SNU-475 cells assessed as reduction in cell viability measured for 180 hrs by RT-CES analysis; type: functional, cell-based; conditions: dose 2.5-10 µM
Mahlavu [36] = assay: Cell cycle arrest in human Mahlavu cells assessed as increase in accumulation of cells at subG1 phase at 5 uM measured after 48 hrs by propidium iodide staining based flow cytometric analysis; type: functional
Huh-7 [37] = assay: Cell cycle arrest in human Huh-7 cells assessed as increase in accumulation of cells at G2/M phase at 5 uM measured after 48 hrs by propidium iodide staining based flow cytometric analysis; type: functional

Row | inhibition [4] | inhibition [8] | inhibition [10] | inhibition [15] | IC50 (Huh-7 [16]) [nM] | IC50 (MCF7) [nM] | inhibition [19] | Compound | Activity (Huh-7 [1]) | Activity (Huh-7 [2]) | Activity (HepG2 [3]) | Activity (SNU-475 [5]) | Activity (Mahlavu [6]) | inhibition (Huh-7 [7]) | Activity (SNU-475 [9]) | Activity (HepG2 [11]) | Activity (SNU-475 [12]) | inhibition (Huh-7 [13]) | Activity (Huh-7 [14]) [%] | Activity (HepG2 [17]) | Activity (HepG2 [18]) | other results
1 | inactive | Active | Active | Active | 90 | 380 | Active | N#Cc1cccc(COc2ccc(-c3cc(CN4CCN(Cc5ccc(C(F)(F)F)cc5)CC4)no3)cc2F)c1 | inactive | Active | Active | Active | Active | Active | Active | Active | Active | Active | 13.12 | Active | Active | Activity (Huh-7 [20]): Active; Activity (Huh-7 [21]): Dose-Dependent Effect; Activity [22]: inactive; inhibition [23]: Active; Activity (Huh-7 [24]): Active; Activity (Mahlavu [25]): Active; Activity (SNU-475 [26]): Active; Activity (HepG2 [27]): Active; Activity (Mahlavu [28]): Dose-Dependent Effect; inhibition (Huh-7 [29]): Active; Activity (SNU-475 [30]): Active; Activity (SNU-475 [31]): Active; inhibition (Huh-7 [32]): inactive; IC50 (Mahlavu [33]): 500 nM; Activity (Mahlavu [34]): Active; Activity (SNU-475 [35]): Dose-Dependent Effect; Activity (Mahlavu [36]): Active; Activity (Huh-7 [37]): Active
2 | inactive | Active | Active | Active | 1700 | 2900 | Active | FC(F)(F)c1ccc(CN2CCN(Cc3cc(-c4ccc(OCc5ccccc5)cc4)on3)CC2)cc1 | inactive | Active | Active | Active | Active | Active | Active | Active | Active | Active | 23.68 | Active | Active | Activity (Huh-7 [20]): Active; Activity (Huh-7 [21]): Dose-Dependent Effect; Activity [22]: inactive; inhibition [23]: Active; Activity (Huh-7 [24]): Active; Activity (Mahlavu [25]): Active; Activity (SNU-475 [26]): Active; Activity (HepG2 [27]): Active; Activity (Mahlavu [28]): Dose-Dependent Effect; inhibition (Huh-7 [29]): Active; Activity (SNU-475 [30]): Active; Activity (SNU-475 [31]): Active; inhibition (Huh-7 [32]): inactive; IC50 (Mahlavu [33]): 11700 nM; Activity (Mahlavu [34]): Active; Activity (SNU-475 [35]): Dose-Dependent Effect; Activity (Mahlavu [36]): Active; Activity (Huh-7 [37]): Active
